The values that follow come from patent US10166241B2, “Combination Therapy III” (TURUN YLIOPISTO, priority 2012, dated 2019).

Test [1] relates to T98G glioblastoma cells. Nature of the test: Apoptosis assay by sub-G0/G1 fraction estimation (apoptotic nuclear fragmentation). To be noted: T98G cells transfected with PME-1 specific dsRNA (so in the source). Format: cell-based, human. As for the experimental part: Apoptosis Assay by Sub-G0/G1 Fraction Estimation: […] After 24 hrs of treatment, both floating and adherent cells were harvested by centrifugation. […] The flow cytometric analysis of PI stained nuclei was performed and the recorded data was analyzed using a FACScan flow cytometer and software (Becton Dickinson) respectively. […] The treatments were given 48 hrs after transfection. Following 24 hrs of drug treatment the cells were lysed in hypotonic buffer, and their nuclei were stained with propidium iodide. The stained cell lysates were analysed to estimate the sub-G0/G1 fraction of fragmented nuclei by flow cytometry (FACS) (FIG. 1B).

In test [2] the test system is U87MG-luciferase glioblastoma cells. Nature of the test: Colony formation assay in U87MG-luciferase cells. Format: cell-based. To be noted: HDAC4 siRNA 48 hrs, then drug 48 hrs (combination). An excerpt: (§1) Cells plated in very low density (4-6×10^3) in 6-well plates were allowed to grow for about 7 days until they form small colonies. These cells were then transfected with Scrambled or HDAC4 siRNA using Lipofectamine RNAiMAX reagent (Invitrogen) according to the manufacturer's instructions. After 48 hrs, treatments were given with indicated concentration of chemical drugs for another 48 hrs. Cell colonies were washed with PBS, fixed with 3.7% formaldehyde and stained with 0.2% crystal violet solution (made in 10% ethanol) for 15 minutes at room temperature each. Excess stain was removed by repeated washings with PBS. Plates were dried and pictures were taken with Epson perfection V700 scanner and analysed with ImageJ.
(§2) The efficacy of the selected potent drugs was then tested by colony formation assay in […] T98G, and highly-tumorigenic U87MG-luciferase (luciferase expressing U87MG cells) glioblastoma cell lines. For this experiment, the cells were grown in 6-well plates in low density until the formation of small colonies which were then transfected with Scrambled or HDAC4 specific siRNA for 48 hrs followed by treatment with STS, PKC412, K252a, UCN-01 and CEP-701 at the indicated concentrations for another 48 hrs.

The subject of test [3] is T98G glioblastoma cells. Nature of the test: Colony formation assay in T98G cells. Format: cell-based, human.
From the text: as §1, §2

Setting [4] is: HDAC4.2 siRNA transfected cells treated with drug.

On to `O=C1NC(=O)c2c1c1c3ccccc3[nH]c1c1[nH]c3ccccc3c21` [Arcyriaflavin A, 12,13-Dihydro-5H-indolo [2,3-a] pyrrolo[3,4-c] carbazole-5,7(6H)-dione], for which, in test [1] (drug 5 μM), the “Potentiation % (Scale)” value is given as “− ((−) 0-20%)” and the “Potentiation % (amount of apoptotic nuclear fragmentation)” value was 5-10%.

Take `C[C@]12O[C@H](C[C@]1(O)CO)n1c3ccccc3c3c4c(c5c6ccccc6n2c5c31)CNC4=O` [CEP-701, (9S,10S,12R)-2,3,9,10,11,12-Hexahydro-10-hydroxy-10-(hydroxyme-thyl)-9-methyl-9,12-epoxy-1H-diindolo [1,2,3-fg:3′,2′,1′-kl] pyrrolo[3,4-i][1, 6] benzo di-azocin-1-one]: the “Potentiation % (Scale)” value is given as “++ ((++) 40-60%)” in test [1] (drug 3.5 μM) and “+++ ((+++) 60-80%)” in test [1] (drug 5 μM). The “Potentiation % (amount of apoptotic nuclear fragmentation)” value in test [1] (drug 3.5 μM) is given as 40-50%; in test [1] (drug 5 μM) it was 70-80%. Further, the colony growth entry in test [2] is “less effective”.

For `Cn1cc(C2=C(c3cn(C4CCN(Cc5ccccn5)CC4)c4ccccc34)C(=O)NC2=O)c2ccccc21` [Enzastaurin, 3-(1-Methyl-1H-indol-3-yl)-4-(1-(1-(2-pyridinylme-thyl)-4-piperidinyl)-1H-indol-3-yl)-1H-pyrrole-2,5-dione], in test [1] (drug 5 μM), the “Potentiation % (Scale)” value is “− ((−) 0-20%)” and the “Potentiation % (amount of apoptotic nuclear fragmentation)” value is given as 10-20%.

As to `Cn1c2ccccc2c2c3c(c4c5ccccc5n(CCC#N)c4c21)CNC3=O` [GÖ-6976, 12-(2-Cyanoethyl)-6,7,12,13-tetrahydro-13-methyl-5-oxo-5H-indolo[2,3-a]pyrrolo[3,4-c]carbazole], in test [1] (drug 5 μM), the “Potentiation % (Scale)” value was “− ((−) 0-20%)” and the “Potentiation % (amount of apoptotic nuclear fragmentation)” value is reported as 10-20%.

In the case of `COC(=O)[C@@]1(O)C[C@H]2O[C@]1(C)n1c3ccccc3c3c4c(c5c6ccccc6n2c5c31)C(=O)NC4` [K252a, (9S,10R,12R)-2,3,9,10,11,12-Hexahydro-10-hydroxy-9-methyl-1-oxo-9,12-epoxy-1H-diindolo [1,2,3-fg:3′,2′,1′-kl] pyrrolo[3,4-i][1,6] benzodi-azocine-10-carboxylic acid methyl ester], the “Potentiation % (Scale)” value in test [1] (drug 3.5 μM) is listed as “++ ((++) 40-60%)”; in test [1] (drug 5 μM), “++++ ((++++) 80-100%)”. In addition, the figures for the “Potentiation % (amount of apoptotic nuclear fragmentation)” value in test [1] (drug 3.5 μM) and in test [1] (drug 5 μM) were 50-60% and 80-90%, respectively. Also, the colony growth entry in test [3] (HDAC4 siRNA 48 hrs, then drug 48 hrs (combination)) is “very potent in reducing the colony growth”; in test [3] (setting [4]), “reduction in the colony growth”; in test [2], “very potent in reducing the colony growth”.

Take `O=C1NCc2c1c1c3ccccc3[nH]c1c1[nH]c3ccccc3c21` [K252c, 6,7,12,13-Tetrahydro-5H-indolo[2,3-a]pyrrolo[3,4-c] carbazol-5-one]: in test [1] (drug 5 μM), the “Potentiation % (Scale)” value is “− ((−) 0-20%)” and the “Potentiation % (amount of apoptotic nuclear fragmentation)” value was 10-20%.

Regarding `CO[C@@H]1[C@H](N(C)C(=O)c2ccccc2)C[C@H]2O[C@@H]1n1c3ccccc3c3c4c(c5c6ccccc6n2c5c31)C(=O)NC4` [PKC412, [9S-(9α,10β,11β, 13α)]-N-(2,3,10, 11,12,13-Hexahydro-10-methoxy-9-methyl-1-oxo-9,13-epoxy-1 H,9H-diindolo [1,2,3-gh:3′,2′,1′-lm]pyrrolo [3,4-j][1,7]benzodiazonin-11-yl)-N-methyl ben-zamide], in test [1] (drug 5 μM), the “Potentiation % (Scale)” value is “++ ((++) 40-60%)” and the “Potentiation % (amount of apoptotic nuclear fragmentation)” value was 50-60%. Besides, the colony growth result in test [3] (setting [4]) is recorded as “reduction in the colony growth”.

Consider `COC1C(CO)OC(n2c3c(Cl)cccc3c3c4c(c5c6cccc(Cl)c6[nH]c5c32)C(=O)NC4=O)C(O)C1O` (stereo not drawn) [Rebeccamycin, 5h-indolo(2,3-a)pyrrolo(3,4-c)carbazole-5,7(6h)-dione,1,11-dichloro-12,13-dihy;dro-12-(4-o-methyl-beta-d-glucopyra-nosyl)], for which, in test [1] (drug 5 μM), the “Potentiation % (Scale)” value is recorded as “− ((−) 0-20%)” and the “Potentiation % (amount of apoptotic nuclear fragmentation)” value was 5-10%.

For the molecule `O=C1NC(=O)c2c1c1c3ccccc3n3c1c1c2c2ccccc2n1C1CCC3O1` [SB-218078, 9,10,11,12-Tetrahydro-9,12-epoxy-1H-diindolo [1,2.3-fg:3′,2′,1′-kl] pyrrolo [3,4-i][1,6] benzodi-azocine-1,3(2H)-dione], in test [1] (drug 5 μM), the “Potentiation % (Scale)” value is “+ ((+) 20-40%)” and the “Potentiation % (amount of apoptotic nuclear fragmentation)” value is given as 20-30%.

Turning to `CN[C@@H]1C[C@H]2O[C@@](C)([C@@H]1OC)n1c3ccccc3c3c4c(c5c6ccccc6n2c5c31)C(=O)NC4` [Staurosporine, [9S-(9α,10β,11β, 13α)]-2,3,10,11, 12,13-Hexa-hydro-10-methoxy-9-methyl-11-(methylamino)-9,13-epoxy-1H,9H-diindolo [1,2,3-gh:3′,2′,1′-lm] pyrrolo [3,4-j][1,7] benzo diazonin-1-one], in test [1] (drug 50 nM), the “Potentiation % (Scale)” value is reported as “+ ((+) 20-40%)” and the “Potentiation % (amount of apoptotic nuclear fragmentation)” value was 30-40%. The colony growth entry in test [3] (setting [4]) is reported as “reduction in the colony growth”.

Regarding `CN[C@@H]1C[C@H]2O[C@@](C)([C@@H]1OC)n1c3ccccc3c3c4c(c5c6ccccc6n2c5c31)C(=O)N[C@H]4O` [UCN-01, (9S)-2,3,10,11,12,13-Hexahydro-3α-hydroxy-10α-methoxy-9-methyl-11α-methyl amino-9β,13β-epoxy-1H,9H-diindolo [1,2,3-gh:3′,2′,1′-lm] pyrrolo [3,4-j][1,7] benzo diazonin-1-one], in test [1] (drug 1.5 μM), the “Potentiation % (Scale)” value is on record as “+ ((+) 20-40%)” and the “Potentiation % (amount of apoptotic nuclear fragmentation)” value is recorded as 20-30%. Moreover, in test [1] (drug 2.5 μM), the “Potentiation % (Scale)” value is listed as “+++ ((+++) 60-80%)” and the “Potentiation % (amount of apoptotic nuclear fragmentation)” value is listed as 70-80%.
